Measured values published in US20230072683A1, “PYRIDO-PYRIMIDIN DERIVATIVES AND PHARMACEUTICAL COMPOSITION, FOR USE IN PREVENTING OR TREATING PI3 KINASE RELATED DISEASES, COMPRISING SAME AS ACTIVE INGREDIENT” (BORYUNG PHARMACEUTICAL CO., LTD, priority 2019, published 2023).
Where two headings read alike, the source gives them in different places.

Experiments:
[1] = target: PI3K-δ (PI3K(p1108/p857) (h)) (Homo sapiens, UniProt O00329); assay: Evaluation of inhibitory activity against PI3K-δ (HTRF kinase assay); assay type: biochemical; details: for inhibition at 0.01 µM: compound concentration 0.01 μM, read-out: EXP_VALUE(% Inhibition) PI3K-δ 0.01 μM; for inhibition at 0.1 µM: read-out: EXP_VALUE(% Inhibition) PI3K-δ 0.1 μM
PI3K-δ (PI3K(p1108/p857) (h)), sequence (O00329 whole entry, the tested form may be a part): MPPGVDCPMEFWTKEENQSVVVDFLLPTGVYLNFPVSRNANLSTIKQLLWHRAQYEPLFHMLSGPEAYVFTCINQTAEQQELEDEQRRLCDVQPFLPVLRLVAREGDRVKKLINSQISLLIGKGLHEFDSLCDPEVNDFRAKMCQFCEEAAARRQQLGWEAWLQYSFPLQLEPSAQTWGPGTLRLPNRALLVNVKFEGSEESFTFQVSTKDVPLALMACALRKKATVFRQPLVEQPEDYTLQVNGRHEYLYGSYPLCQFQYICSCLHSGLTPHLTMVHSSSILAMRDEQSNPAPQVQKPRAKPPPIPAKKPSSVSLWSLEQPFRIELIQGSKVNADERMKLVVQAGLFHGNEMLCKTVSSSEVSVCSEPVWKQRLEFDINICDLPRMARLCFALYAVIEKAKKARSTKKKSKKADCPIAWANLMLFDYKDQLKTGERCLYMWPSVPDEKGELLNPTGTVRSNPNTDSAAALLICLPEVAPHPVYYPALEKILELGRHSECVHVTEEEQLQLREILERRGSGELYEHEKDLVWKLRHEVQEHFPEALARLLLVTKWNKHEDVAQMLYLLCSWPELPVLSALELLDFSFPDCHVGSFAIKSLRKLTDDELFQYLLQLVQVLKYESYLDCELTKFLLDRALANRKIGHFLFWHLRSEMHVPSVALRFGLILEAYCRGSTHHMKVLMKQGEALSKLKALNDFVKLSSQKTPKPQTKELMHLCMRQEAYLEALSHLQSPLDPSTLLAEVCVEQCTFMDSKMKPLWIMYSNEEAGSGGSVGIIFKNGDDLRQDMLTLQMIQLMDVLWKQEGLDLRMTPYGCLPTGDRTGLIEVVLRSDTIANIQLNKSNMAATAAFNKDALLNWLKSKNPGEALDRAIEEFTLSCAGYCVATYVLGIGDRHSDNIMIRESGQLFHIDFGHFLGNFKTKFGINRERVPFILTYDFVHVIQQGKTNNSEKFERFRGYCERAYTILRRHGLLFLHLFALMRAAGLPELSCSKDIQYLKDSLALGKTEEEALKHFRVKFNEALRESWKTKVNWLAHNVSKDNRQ
PI3K-δ (PI3K(p1108/p857) (h)), sequence (P27986 whole entry partner, the tested form may be a part): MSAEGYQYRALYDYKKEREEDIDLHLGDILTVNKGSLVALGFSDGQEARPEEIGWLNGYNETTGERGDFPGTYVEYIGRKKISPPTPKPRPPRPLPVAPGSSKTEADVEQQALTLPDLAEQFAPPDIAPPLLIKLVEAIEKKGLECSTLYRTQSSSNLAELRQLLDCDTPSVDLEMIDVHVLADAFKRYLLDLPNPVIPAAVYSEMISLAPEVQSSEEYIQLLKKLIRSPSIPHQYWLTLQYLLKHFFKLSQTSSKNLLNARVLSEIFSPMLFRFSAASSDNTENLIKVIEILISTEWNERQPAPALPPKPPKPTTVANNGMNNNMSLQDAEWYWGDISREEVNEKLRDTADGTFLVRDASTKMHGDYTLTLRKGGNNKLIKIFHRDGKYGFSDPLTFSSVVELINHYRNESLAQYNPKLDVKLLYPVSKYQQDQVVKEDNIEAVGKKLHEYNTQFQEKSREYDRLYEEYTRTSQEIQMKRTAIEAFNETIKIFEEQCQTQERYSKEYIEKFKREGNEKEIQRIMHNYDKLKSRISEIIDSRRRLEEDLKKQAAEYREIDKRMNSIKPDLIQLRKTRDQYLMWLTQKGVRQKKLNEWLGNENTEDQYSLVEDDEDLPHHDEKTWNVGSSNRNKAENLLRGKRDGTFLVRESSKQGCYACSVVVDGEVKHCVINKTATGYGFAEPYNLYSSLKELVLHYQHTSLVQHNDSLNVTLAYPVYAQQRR
Procedure, shortened: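 HTRF read-out (665/620 nm ratio ×10000) used Eu-labelled anti-GST, GST-tagged GRP1 PH domain and streptavidin-allophycocyanin after EDTA/PIP3 stop.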

DNA-PK(h) = DNA-PK(h) (Homo sapiens, UniProt P78527); assay: Evaluation of inhibitory activity against DNA-PK (HTRF kinase assay, GST-cMyc-p53 substrate); assay type: biochemical; details: for inhibition at 0.01 µM: compound concentration 0.01 μM, read-out: EXP_VALUE(% Inhibition) DNA-PK(h) 0.01 μM; for inhibition at 0.1 µM: read-out: EXP_VALUE(% Inhibition) DNA-PK(h) 0.1 μM
Procedure, shortened: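 Human DNA-PK with 50 μM GST-cMyc-p53 substrate; reaction started with Mg/ATP, run 30 min at room temperature, stopped with EDTA. Phospho-Ser15 p53 detected by HTRF (Eu anti-phospho-Ser15, d2 anti-GST), signal = 10000×(Em 665/Em 620).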

inhibition at 0.01 µM [1] [%] | inhibition at 0.1 µM ([1]; compound concentration 0.1 μM) [%] | inhibition at 0.01 µM (DNA-PK(h)) [%] | inhibition at 0.1 µM (DNA-PK(h); compound concentration 0.1 μM) [%] | inhibition at 0.1 µM ([1]; compound at 0.1 μM) [%] | inhibition at 0.1 µM (DNA-PK(h); compound at 0.1 μM) [%] | SMILES
2 | 10 | 0 | 4 |  |  | C[C@H](Nc1ncnc2[nH]ccc(=O)c12)c1c(Cl)c2cccc(Sc3ccc(Cl)cc3)c2c(=O)n1-c1ccccc1 [Example 371, (S)-4-((1-(4-chloro-8-((4-chlorophenyl)thio)-1-oxo-2-phenyl-1,2-dihydroisoquinolin-3-yl)ethyl)amino)pyrido[2,3-d]pyrimidin-5(8H)-one]
74 |  | 76 |  |  |  | COc1ncc(-c2cccc3c(Cl)c([C@H](C)Nc4ncnc5[nH]ccc(=O)c45)n(-c4ccccc4)c(=O)c23)cc1NS(C)(=O)=O [Example 225, (S)—N-(5-(4-chloro-1-oxo-3-(1-((5-oxo-5,8-dihydropyrido[2,3-d]pyrimidin-4-yl)amino)ethyl)-2-phenyl-1,2-dihydroisoquinolin-8-yl)-2-methoxypyridin-3-yl)methanesulfonamide]
13 |  | -7 |  |  |  | C[C@H](Nc1ncnc2[nH]ccc(=O)c12)c1c(Cl)c2cccc(Nc3ccc(F)cc3)c2c(=O)n1-c1ccccc1 [Example 344, (S)-4-((1-(4-chloro-8-((4-fluorophenyl)amino)-1-oxo-2-phenyl-1,2-dihydroisoquinolin-3-yl)ethyl)amino)pyrido[2,3-d]pyrimidin-5(8H)-one]
90 | 102 | 68 | 94 |  |  | CC(C)Oc1ccc(-c2cccc3c(Cl)c([C@H](C)Nc4ncnc5[nH]ccc(=O)c45)n(-c4ccccc4)c(=O)c23)cn1 [Example 101, (S)-4-((1-(4-chloro-8-(6-isopropoxypyridin-3-yl)-1-oxo-2-phenyl-1,2-dihydroisoquinolin-3-yl)ethyl)amino)pyrido[2,3-d]pyrimidin-5(8H)-one]
 |  |  |  | 8 | 24 | C[C@H](Nc1ncnc2[nH]ccc(=O)c12)c1c(Cl)c2cccc(S(=O)(=O)C(C)(C)C)c2c(=O)n1-c1ccccc1 [Example 433, (S)-4-((1-(8-(tert-butylsulfonyl)-4-chloro-1-oxo-2-phenyl-1,2-dihydroisoquinolin-3-yl)ethyl)amino)pyrido[2,3-d]pyrimidin-5(8H)-one]
22 | 68 | 10 | 34 |  |  | C[C@H](Nc1ncnc2[nH]ccc(=O)c12)c1c(Cl)c2cccc(NCc3ccccc3)c2c(=O)n1-c1ccccc1 [Example 321, (S)-4-((1-(8-(benzylamino)-4-chloro-1-oxo-2-phenyl-1,2-dihydroisoquinolin-3-yl)ethyl)amino)pyrido[2,3-d]pyrimidin-5(8H)-one]
89 | 101 | 77 | 98 |  |  | C[C@H](Nc1ncnc2[nH]ccc(=O)c12)c1c(Cl)c2cccc(-c3cccc(CC#N)c3)c2c(=O)n1-c1ccccc1 [Example 91, (S)-2-(3-(4-chloro-1-oxo-3-(1-((5-oxo-5,8-dihydropyrido[2,3-d]pyrimidin-4-yl)amino)ethyl)-2-phenyl-1,2-dihydroisoquinolin-8-yl)phenyl)acetonitrile]
105 | 104 | 52 | 91 |  |  | C[C@H](Nc1ncnc2[nH]ccc(=O)c12)c1c(Br)c2cccc(Cl)c2c(=O)n1-c1ccccc1 [Example 1, (S)-4-((1-(4-bromo-8-chloro-1-oxo-2-phenyl-1,2-dihydroisoquinolin-3-yl)ethyl)amino)pyrido[2,3-d]pyrimidin-5(8H)-one]
58 |  | 62 |  |  |  | COc1ncc(-c2cccc3c(Cl)c([C@H](C)Nc4ncnc5[nH]ccc(=O)c45)n(-c4ccccc4)c(=O)c23)cn1 [Example 171, (S)-4-((1-(4-chloro-8-(2-methoxypyrimidin-5-yl)-1-oxo-2-phenyl-1,2-dihydroisoquinolin-3-yl)ethyl)amino)pyrido[2,3-d]pyrimidin-5(8H)-one]
75 |  | 55 |  |  |  | C[C@H](Nc1ncnc2[nH]ccc(=O)c12)c1c(Cl)c2cccc(-c3cnc(N4CCCC4)nc3)c2c(=O)n1-c1ccccc1 [Example 222, (S)-4-((1-(4-chloro-1-oxo-2-phenyl-8-(2-(pyrrolidin-1-yl)pyrimidin-5-yl)-1,2-dihydroisoquinolin-3-yl)ethyl)amino)pyrido[2,3-d]pyrimidin-5(8H)-one]
 |  |  |  | 69 | 74 | COC(C)(C)c1ncc(-c2cccc3c(Cl)c([C@H](C)Nc4ncnc5[nH]ccc(=O)c45)n(-c4ccccc4)c(=O)c23)cn1 [Example 405, (S)-4-((1-(4-chloro-8-(2-(2-methoxypropan-2-yl)pyrimidin-5-yl)-1-oxo-2-phenyl-1,2-dihydroisoquinolin-3-yl)ethyl)amino)pyrido[2,3-d]pyrimidin-5(8H)-one]
12 |  | 6 |  |  |  | C[C@H](Nc1ncnc2[nH]ccc(=O)c12)c1c(Cl)c2cccc(NS(=O)(=O)c3ccc(F)cc3)c2c(=O)n1-c1ccccc1 [Example 303, (S)—N(4-chloro-1-oxo-3-(1-((5-oxo-5,8-dihydropyrido[2,3-d]pyrimidin-4-yl)amino)ethyl)-2-phenyl-1,2-dihydroisoquinolin-8-yl)-4-fluorobenzenesulfonamide]
83 | 114 | 80 | 95 |  |  | C[C@H](Nc1ncnc2[nH]ccc(=O)c12)c1c(Cl)c2cccc(C#Cc3cccnc3)c2c(=O)n1-c1ccccc1 [Example 307, (S)-4-((1-(4-chloro-1-oxo-2-phenyl-8-(pyridin-3-ylethynyl)-1,2-dihydroisoquinolin-3-yl)ethyl)amino)pyrido[2,3-d]pyrimidin-5(8H)-one]
30 | 75 | -1 | 33 |  |  | C[C@H](Nc1ncnc2[nH]ccc(=O)c12)c1c(Cl)c2cccc(NC3CCOCC3)c2c(=O)n1-c1ccccc1 [Example 332, (S)-4-((1-(4-chloro-1-oxo-2-phenyl-8-((tetrahydro-2H-pyran-4-yl)amino)-1,2-dihydroisoquinolin-3-yl)ethyl)amino)pyrido[2,3-d]pyrimidin-5(8H)-one]
68 |  | 45 |  |  |  | COc1ncc(-c2cccc3c(Cl)c([C@H](C)Nc4ncnc5[nH]ccc(=O)c45)n(-c4ccccc4)c(=O)c23)cc1C#N [Example 229, (S)-5-(4-chloro-1-oxo-3-(1-((5-oxo-5,8-dihydropyrido[2,3-d]pyrimidin-4-yl)amino)ethyl)-2-phenyl-1,2-dihydroisoquinolin-8-yl)-2-methoxynicotinonitrile]
38 |  | 28 |  |  |  | C[C@H](Nc1ncnc2[nH]ccc(=O)c12)c1c(Cl)c2cccc(-c3ncc[nH]3)c2c(=O)n1-c1ccccc1 [Example 287, (S)-4-((1-(4-chloro-8-(1H-imidazol-2-yl)-1-oxo-2-phenyl-1,2-dihydroisoquinolin-3-yl)ethyl)amino)pyrido[2,3-d]pyrimidin-5(8H)-one]
81 |  | 78 |  |  |  | C[C@H](Nc1ncnc2[nH]ccc(=O)c12)c1c(Cl)c2cccc(-c3cnc(N)nc3)c2c(=O)n1-c1ccccc1 [Example 56, (S)-4-((1-(8-(2-aminopyrimidin-5-yl)-4-chloro-1-oxo-2-phenyl-1,2-dihydroisoquinolin-3-yl)ethyl)amino)pyrido[2,3-d]pyrimidin-5(8H)-one]
81 |  | 63 |  |  |  | C[C@H](Nc1ncnc2[nH]ccc(=O)c12)c1c(Cl)c2cccc(-c3ccc(OC4CCOCC4)nc3)c2c(=O)n1-c1ccccc1 [Example 162, (S)-4-((1-(4-chloro-1-oxo-2-phenyl-8-(6-((tetrahydro-2H-pyran-4-yl)oxy)pyridin-3-yl)-1,2-dihydroisoquinolin-3-yl)ethyl)amino)pyrido[2,3-d]pyrimidin-5(8H)-one]
83 | 108 | 54 | 95 |  |  | COc1cc(-c2cccc3c(Cl)c([C@H](C)Nc4ncnc5[nH]ccc(=O)c45)n(-c4ccccc4)c(=O)c23)ccc1Cl [Example 99, (S)-4-((1-(4-chloro-8-(4-chloro-3-methoxyphenyl)-1-oxo-2-phenyl-1,2-dihydroisoquinolin-3-yl)ethyl)amino)pyrido[2,3-d]pyrimidin-5(8H)-one]
68 | 98 | 75 | 98 |  |  | Cc1ccc(-c2cccc3c(Cl)c([C@H](C)Nc4ncnc5[nH]ccc(=O)c45)n(-c4ccccc4)c(=O)c23)cn1 [Example 257, (S)-4-((1-(4-chloro-8-(6-methylpyridin-3-yl)-1-oxo-2-phenyl-1,2-dihydroisoquinolin-3-yl)ethyl)amino)pyrido[2,3-d]pyrimidin-5(8H)-one]
49 |  | 47 |  |  |  | C[C@H](Nc1ncnc2[nH]ccc(=O)c12)c1c(Cl)c2cccc(-c3cnc(N(C)C)cn3)c2c(=O)n1-c1ccccc1 [Example 205, (S)-4-((1-(4-chloro-8-(5-(dimethylamino)pyrazin-2-yl)-1-oxo-2-phenyl-1,2-dihydroisoquinolin-3-yl)ethyl)amino)pyrido[2,3-d]pyrimidin-5(8H)-one]
